Test results taken from US20260109714A1, “PYRIMIDINE-FUSED RING COMPOUND, AND PREPARATION METHOD THEREFOR AND USE THEREOF” (GENFLEET THERAPEUTICS (SHANGHAI) INC., priority 2022, published 2026).

What was measured:
[1] = system: AGS human gastric cancer cell line with KRAS G12D mutation; experiment: Cell proliferation inhibition experiment, 3D CellTiter-Glo, AGS; assay type: cell-based; details: AGS cells, 3D spheroid, 5 days
Source text: (§1) AsPC-1 was purchased from ATCC, Article No.: CRL-1682; AGS was purchased from ATCC, Article No.: CRL-1739; RPMI1640 was purchased from Gibco, Article No.: 11875-093 2235123; F12K was purchased from Gibco, Article No.: 21127-022; FBS was purchased from Gibco, Article No.: 10099-141C; the trypsin (containing EDTA) was purchased from Gibco, Article No.: 25200-072; CellTiter Glo-3D was purchased from Progema, Article No.: G9683; the 384-well spheroid plate was purchased from Corning, Article No.: 3830; the white-bottom opaque 384-well plate was purchased from Corning, Article No.: 3570; the cell counter was purchased from CHEMOMETEC, model: NC-200; the microplate reader was purchased from PerkinElmer, model: Envison;
(§2) AsPC-1, an endogenous human pancreatic cancer cell AsPC-1 with KRAS^G12D mutation, was cultured in RPMI-1640 medium containing 10% FBS. AGS, a human gastric cancer cell line with KRAS^G12D mutation, was cultured in F-12K medium containing 10% FBS. Cells in logarithmic growth period were digested with trypsin (containing EDTA), collected and counted. 800 AsPC-1 cells/well or 400 […] were inoculated in a 384-well spheroid plate, and cultured overnight in an incubator with 5% CO2 to establish a 3D cell model. 1000× compound stock solutions with gradient concentrations of 3.16 times were prepared with DMSO, and 100-fold diluted to 10× compound stock solutions with the culture medium. The 10× compound stock solution was added to each cell culture well on the second day after cell inoculation, to give a final concentration of 1× and DMSO content of 0.1%. DMSO was used as the control, and the culture medium was used as the blank. After the compound was added, the cells were cultured for 5 days. 30 μl CellTiter-Glo working solution was added to each well, and mixed uniformly. The cells were incubated for 30 min, and allowed to stand at room temperature for 30 min. 40 μl of the mixture was transferred to a white-bottom opaque 384-well plate, and the luminescence was read on a microplate reader. The inhibition rate on cell proliferation was calculated by a formula: IR (%)=(RLU of control−RLU of compound)/(RLU of control−RLU of blank)×100%. The gradient concentrations of the compound and the corresponding inhibition rates were fitted by using XLFit four-parameter method, and the IC50 value was calculated. […] The results of some exemplary compounds are shown in Table 2 below (—means not tested).

[2] = system: AsPC-1 human pancreatic cancer cell with KRAS G12D mutation; experiment: Cell proliferation inhibition experiment, 3D CellTiter-Glo, AsPC-1; assay type: cell-based; details: AsPC-1 cells, 3D spheroid, 5 days
Source text: as §1, §2

[3] = system: AGS p-ERK; experiment: Cell assay for p-ERK (HTRF, Advance ERK phospho-T202/Y204 kit); assay type: cell-based, human; details: AGS cells (KRAS G12D), 3 hrs with compound, inhibition of p-ERK level
Method: AGS was purchased from ATCC, Article No.: CRL-1739; F12K was purchased from Gibco, Article No.: 21127-022; FBS was purchased from Gibco, Article No.: 10099-141C; the trypsin (containing EDTA) was purchased from Gibco, Article No.: 25200-072; DMSO was purchased from VWRAMRESCO, Article No.: 0231-500ML; the 96-well cell culture plate was purchased from Corning, Article No.: 3599; the white-bottom opaque 96-well plate was purchased from Cisbio, Article No.: 66PL96025; Advance ERK phospho-T202/Y204 kit was purchased from Cisbio, Article No.: 64AERPEH; the cell counter was purchased from CHEMOMETEC, model: NC-200; the microplate reader was purchased from PerkinElmer, model: Envison.
AGS, an endogenous human gastric adenocarcinoma cell line with KRAS^G12D mutation, was cultured in F12K+10% FBS medium. On the first day of the experiment, cells in logarithmic growth period were digested with trypsin (containing EDTA), collected and counted, and about 20,000 cells/well were inoculated in a 96-well cell culture plate and cultured overnight in an incubator with 5% CO2. 1000× compound stock solutions with gradient concentrations of 3.16 times were prepared with DMSO, and 200-fold diluted to 5× compound stock solutions with the above culture medium. The 5× compound stock solution was added to each cell culture well on the second day after cell inoculation, to give a final concentration of 1× and DMSO content of 0.1%. DMSO was used as experimental control. After adding the compound, the cells were continuously cultured for 3 hrs. Then, the culture medium in the well was removed, and 50 μl/well of cell lysis buffer (from Advanced ERK phospho-T202/Y204 kit, the same hereinafter) was added, and mixed uniformly. The cells were cultured for 30 min. Then 16 μl of the mixture was transferred to a white-bottom opaque 96-well plate, and 16 μl of the cell lysis buffer was added to an additional well and used as a blank. After that, 4 μl of p-ERK HTRF antibody mixed solution (from Advanced ERK Phos Pho-T202/Y204 Kit) was added to each well. After incubation for 4 hrs, the fluorescence value (RLU) of HTRF was read on a microplate reader. The inhibition rate of the compound on p-ERK level was calculated by the formula IR (%)=(RLU of control−RLU of compound)/(RLU of control−RLU of blank)×100%. The compound concentration and the corresponding inhibition rate on p-ERK level in the cells were fitted by using Prism 8 four-parameter method, and the IC50 value was calculated.

[4] = in vivo; details: male, CD-1, mouse, po, 30 mg/kg
Method: (§3) Test objective: Male CD-1 mice were used as test animals. The drug concentrations in plasma of mice at various times were determined by LC/MS/MS after intravenous and oral administration of the test compounds. The pharmacokinetic behavior of the test compounds in mice was studied and their pharmacokinetic characteristics were evaluated.
(§4) Test methods: test animals: 60 healthy adult male CD-1 mice, aged 6-8 weeks and weighing about 30 g, and divided into 10 groups, including IV groups (intravenous injection group, five groups), with 6 mice in each group; and PO groups (oral administration group, five groups), with 6 mice in each group.
(§5) Preparation of drug solution: IV group: Taking 10 mL sample solution as an example, 2 mg sample was weighed, 0.5 mL DMSO and 1 mL Solutol HS 15 were sequentially added, and then 8.5 mL 6% HP-β-CD was added, and stirred ultrasonically to obtain a clear solution of 0.2 mg/mL.
(§6) PO group 1: Taking 10 mL sample solution as an example, 10 mg sample was weighed, 0.5 mL DMSO and 1 mL Solutol HS 15 were sequentially added, and then 8.5 mL 6% HP-β-CD was added, and stirred ultrasonically to obtain a 1 mg/mL solution.
(§7) PO group 2: A 3 mg/mL solution of the sample was prepared according to the preparation method for PO group 1.
(§8) Administration: After overnight fasting, the mice in the IV group were administered with a volume of 5 mL/kg at a dose of 1 mg/kg.
(§9) PO group 1: The mice were administered with a volume of 10 mL/kg at a dose of 10 mg/kg.
(§10) PO group 2: The mice were administered with a volume of 10 mL/kg at a dose of 30 mg/kg.
(§11) Experimental operations: Male CD-1 mice in the intravenous injection group and oral administration group were given the test compound, respectively. After that, 50 μl of blood was periodically collected into a K2EDTA anticoagulation tube at 0.0833, 0.25, 0.5, 1, 2, 4, 6, 8 and 24 hrs, and the plasma was separated by centrifugation at 4° C. and 8000 rpm for 15 min. The plasma was stored in dry ice at −80° C. 4 hrs after administration, the animals were allowed to free access to food. The contents of the test compounds in plasma of mice after intravenous and oral administration were determined by LC/MS/MS. The linear range of the method was 1-3000 ng/ml. The plasma samples were treated with acetonitrile to precipitate the protein and then analyzed.

[5] = Pharmacokinetic evaluation test in mice
Method: as §3, §4, §5, §6, §7, §8, §9, §10, §11

[6] = male, CD-1, mouse, plasma, po, 10 mg/kg

C[C@@H]1Oc2nc(-c3cc(N)cc(Cl)c3C(F)(F)F)c(F)c3nc(OC[C@@]45CCCN4CC(=C(F)F)C5)nc(c23)N2C[C@H]3CC[C@H](N3)[C@@H]12 [Z1084, 3-chloro-5-((5S,5aS,6S,9R)-12-(((S)-2-(difluoromethylene)tetrahydro-1H-pyrrolizin-7a(5H)-yl)methoxy)-1-fluoro-5-methyl-5a,6,7,8,9,10-hexahydro-5H-4-oxa-3,10a,11,13,14-pentaaza-6,9-methanonaphtho[1,8-ab]hepten-2-yl)-4-(trifluoromethyl) aniline]
IC50 ([1]; Homo sapiens, 120 h): 0.00038 µM
IC50 ([2]; Homo sapiens, ASPC1, 120 h): 0.00123 µM
IC50 ([3]; Homo sapiens): 0.00012 µM
AUC(0-t) [4]: 2440 ng·h/mL
bioavailability [4]: 20.7%

CCc1cccc2cc(O)cc(-c3nc4c5c(nc(OC[C@@]67CCCN6C[C@H](F)C7)nc5c3F)N3C[C@H]5CC[C@H](N5)[C@H]3CO4)c12 [Z140-1, 5-ethyl-4-((5aS,6S,9R)-1-fluoro-12-(((2R,7aS s)-2-fluorotetrahydro-1H-pyrrolizin-7a(5H)-yl)methoxy)-5a,6,7,8,9,10-hexahydro-5H-4-oxa-3,10a,11,13,14-pentaaza-6,9-methanonaphtho[1,8-ab]hepten-2-yl)naphthalen-2-ol]
AUC(0-t) [5, 6]: 42.1 ng·h/mL
bioavailability [5, 6]: 2.33%

[2H]C([2H])([2H])[C@@H]1Oc2nc(-c3cc(N)cc(Cl)c3C(F)(F)F)c(F)c3nc(OC[C@]45CCCN4CCC5=C)nc(c23)N2C[C@H]3CC[C@H](N3)[C@@H]12 [Z1060, 3-chloro-5-((5S,5aS,6S,9R)-1-fluoro-5-(methyl-d3)-12-(((R)-1-methylenetetrahydro-1H-pyrrolizin-7a(5H)-yl)methoxy)-5a,6,7,8,9,10-hexahydro-5H-4-oxo-3,10a,11,13,14-pentaaza-6,9-methanonaphtho[1,8-ab]hepten-2-yl)-4-(trifluoromethyl) aniline]
IC50 ([1]; Homo sapiens, 120 h): 0.00019 µM
IC50 ([2]; Homo sapiens, ASPC1, 120 h): 0.00163 µM
IC50 ([3]; Homo sapiens): 0.00072 µM

C#Cc1c(F)ccc2cc(O)cc(-c3nc4c5c(nc(OC[C@@]67CCCN6C[C@H](F)C7)nc5c3F)N3C[C@H]5CC[C@H](N5)[C@H]3CO4)c12 [Z131-1, 5-ethynyl-6-fluoro-4-((5aS,6S,9R)-1-fluoro-12-(((2R,7aS)-2-fluorotetrahydro-1H-pyrrolizin-7a(5H)-yl)methoxy)-5a,6,7,8,9,10-hexahydro-5H-4-oxo-3,10a,11,13,14-pentaaza-6,9-methanonaphtho[1,8-ab]hepten-2-yl)naphthalen-2-ol]
IC50 [1]: 0.00253 µM
IC50 [2]: 0.0328 µM
F (%) bioavailability ([5]; PO group, 10 mpk, male CD-1 mice): 0.9%
AUClast ([5]; PO group, 10 mpk, male CD-1 mice, plasma): 40.4 ng·h/mL
IC50 [3]: 0.00158 µM

C[C@@H]1Oc2nc(-c3cc(N)cc4cccc(Cl)c34)c(F)c3nc(OC[C@]45CCCN4CC(F)(F)C5)nc(c23)N2C[C@H]3CC[C@H](N3)[C@@H]12 [Z737, 5-chloro-4-((5S,5aS,6S,9R)-12-(((R)-2,2-difluorotetrahydro-1H-pyrrolizin-7a(5H)-yl)methoxy)-1-fluoro-5-methyl-5a,6,7,8,9,10-hexahydro-5H-4-oxa-3,10a,11,13,14-pentaaza-6,9-methanonaphtho[1,8-ab]hepten-2-yl)naphthalen-2-amine]
IC50 [1]: 0.034 µM
IC50 [2]: 0.0442 µM
IC50 [3]: 0.0153 µM

C#Cc1c(F)ccc2cc(N)cc(-c3nc4c5c(nc(OC[C@]67CCCN6CC(F)(F)C7)nc5c3F)N3C[C@H]5CC[C@H](N5)[C@H]3[C@H](C)O4)c12 [Z739, 4-((5S,5aS,6S,9R)-12-(((R)-2,2-difluorotetrahydro-1H-pyrrolizin-7a(5H)-yl)methoxy)-1-fluoro-5-methyl-5a,6,7,8,9,10-hexahydro-5H-4-oxa-3,10a,11,13,14-pentaaza-6,9-methanonaphtho[1,8-ab]hepten-2-yl)-5-ethynylnaphthalen-2-amine]
IC50 ([1]; Homo sapiens, 120 h): 0.011 µM
IC50 ([2]; Homo sapiens, ASPC1, 120 h): 0.00616 µM
IC50 ([3]; Homo sapiens): 0.00263 µM

(5S,5aS,6S,9R)-12-((2,6-dimethyltetrahydro-1H-pyrrolizin-7a(5H)-methoxy)-2-(8-ethynyl-6-fluoronaphthalen-1-yl)-1-fluoro-5-methyl-5a,6,7,8,9,10-hexahydro-5H-4-oxa-3,10a,11,13,14-pentaaza-6,9-methanonaphtho[1,8-ab]heptene [Z551]
IC50 [1]: 0.0454 µM
IC50 [2]: 0.17 µM
IC50 [3]: 0.061 µM

C#Cc1cccc2cc(N)cc(-c3nc4c5c(nc(OCC(C)C(O)C(F)F)nc5c3F)N3C[C@H]5CC[C@H](N5)[C@H]3[C@H](C)O4)c12 (stereo partly drawn) [Z742]
IC50 ([1]; Homo sapiens, 120 h): 0.156 µM
IC50 ([2]; Homo sapiens, ASPC1, 120 h): 0.312 µM
IC50 ([3]; Homo sapiens): 0.052 µM

C#Cc1c(F)ccc2cccc(-c3cc4nc(OC[C@]56CCCN5CCC6=C)nc5c4c(n3)O[C@@H](C)[C@@H]3[C@@H]4CC[C@H](CN53)N4)c12 [Z958, (5S,5aS,6S,9R)-2-(8-ethynyl-7-fluoronaphthalen-1-yl)-5-methyl-12-(((R)-1-methylenetetrahydro-1H-pyrrolizin-7a(5H)-yl)methoxy)-5a,6,7,8,9,10-hexahydro-5H-4-oxy-3,10a,11,13,14-pentaaza-6,9-methanonaphtho[1,8-ab]heptene]
IC50 ([1]; Homo sapiens, 120 h): 0.0456 µM
IC50 ([2]; Homo sapiens, ASPC1, 120 h): 0.0695 µM
IC50 ([3]; Homo sapiens): 0.0292 µM

[2H]C([2H])([2H])[C@@H]1Oc2nc(-c3cc(N)cc4cccc(C#C)c34)c(F)c3nc(OC[C@@]45CCCN4CC(=C(F)F)C5)nc(c23)N2C[C@H]3CC[C@H](N3)[C@@H]12 [Z1044, 4-((5S,5aS,6S,9R)-12-(((S)-2-(difluoromethylene)tetrahydro-1H-pyrrolizin-7a(5H)-yl)methoxy)-1-fluoro-5-(methyl-d3)-5a,6,7,8,9,10-hexahydro-5H-4-oxa-3,10a,11,13,14-pentaaza-6,9-methanonaphtho[1,8-ab]hepten-2-yl)-5-ethynylnaphthalen-2-amine]
IC50 ([1]; Homo sapiens, 120 h): 0.00053 µM
IC50 ([2]; Homo sapiens, ASPC1, 120 h): 0.00092 µM
IC50 ([3]; Homo sapiens): 0.00034 µM

C#Cc1cccc2cc(N)cc(-c3nc4c5c(nc(OCC67CC(F)(F)CN6CC=C7C)nc5c3F)N3C[C@H]5CC[C@H](N5)[C@H]3[C@H](C)O4)c12 (stereo partly drawn) [Z748]
IC50 ([1]; Homo sapiens, 120 h): 0.0231 µM
IC50 ([2]; Homo sapiens, ASPC1, 120 h): 0.0129 µM
IC50 ([3]; Homo sapiens): 0.00463 µM
